Read-outs that look alike come from different tables or passages of the source.

In EP3231799A1, “4-(AZETIDIN-1-YL)PYRIMIDINE DERIVATIVES WITH ANTI-MITOTIC AND ANTI-PROLIFERATIVE ACTIVITY” (Universität Basel, priority 2016, dated 2017) one finds EC50 data, which are given here for 8 compounds.

This assay concerns A2058 melanoma cells. The experiment in a line: Mitotic arrest (microtubule binding) in A2058 melanoma cells, high-content microscopy. As to conditions: Homo sapiens, inhibitors 1 - 0.008 µM for 24 hours, mean value of at least four experiments. The class given is cell-based. As to the method:
Microtubule binding of compounds of formula (I) was determined in A2058 melanoma cells measuring mitotic arrest in high-throughput, high-content microscopic approaches. Microtubule networks or their depolymerization were visualized in parallel. Cellular tests are beneficial to address the biological question of tubulin binding, but also indirectly measure the uptake of a compound by cells. A hallmark of microtubule modifying agents (stabilizing or de-stabilizing) is a mitotic arrest cell cycle arrest of dividing cells, which was measured using the following protocol: • Cell preparation: 5000 A2058 cells were seeded in 100 µl complete DMEM into 96-well plates (Cell Carrier, Perkin Elmer) the day before inhibitor treatment. Cells were exposed to inhibitors (ranging from 1 - 0.008 µM) for 24 hours and fixed by addition of half a volume 10% PFA in PBS (30 min., RT). Cells were permeabilized and stained with Hoechst33324 by addition of 1:10 volume of 1%BSA/1% Triton X-100, 10 µM Hoechst33324 in PBS (30 min., RT), followed by a first image acquisition. Subsequently cells were additionally stained with rabbit anti pSer^10 Histone H3 (Cell Signaling Technologies) and rat anti-α-tubulin (Santa Cruz Technologies, overnight, 4 °C, shaking). Cells were washed and incubated with Alexa 488 conjugated goat anti rat IgG, Alexa 647 conjugated goat anti rabbit IgG antibodies (Life Technologies) and 1 µM Hoechst33324 in 1% BSA/0.1% Triton X-100/1x PBS (shaking; RT; dark), followed by 3 wash cycles and a 2nd round of imaging. • Image acquisition: Fluorescent microscopy images were acquired on an Operetta high content analysis system (Perkin Elmer). 35 fields of view/well were acquired as wide field images (20xWD objective). 1st acquisition: Nuclear DNA content and DNA morphology was imaged using the DAPI filter set. 2nd acquisition: Nuclear DNA, phosphorylated Histone H3 and α-tubulin images were acquired using DAPI, Alexa488 and Alexa647 filter sets. • Image analysis: Images were batch analysed using Columbus software (PerkinElmer). Analyses were run including single cell analysis mode. The total number of nuclei was determined in the DAPI channel. Nuclear DNA was classified into "normal" or "condensed" using a linear classifier mode. The percentage of cells with condensed DNA was calculated for each well (% condensed = (# condensed/ # total) *100). The fraction of cells with pSer10 Histone H3 positive nuclei was determined using Hoechst33342 and Alexa647 signals. 1st the nuclei were identified using DNA staining (Hoechst33342; excluding nuclei at image borders). 2nd the identified nuclei were classified positive or negative for pSer10 Histone H3 by two filters using the "filter by properties" mode based on Alexa 647 intensities. Alexa 647 filter properties were i) mean intensities above threshold /nucleus and ii) a maximum intensity above threshold. Calculation: % Alexa 647^positive = (# Alexa 647^positive / # selected nuclei) *100.
The percentage of cells with condensed DNA and the percentage of pSer10 Histone H3 positive nuclei were blotted as function of inhibitor concentration (log scale) using GraphPad Prism. Half maximal effective concentrations (EC50) of inhibitors were determined using GraphPad's "non-linear regression with variable slope" formula (Y=Bottom + (Top-Bottom)/(1+10^((LogEC50-X)*HillSlope))). Table 1: Effect of selected formula (I) compounds on mitotic arrest in A2058 cells. Half-maximal effective concentrations are given as mean value of at least four experiments for the indicated cellular phenotypes.

Where [1] appears, read: percentage of cells with condensed DNA, read-out: Half-maximal effective concentrations (EC50), Condensed DNA.
Where [2] appears, read: percentage of pSer10 Histone H3 positive nuclei, read-out: Half-maximal effective concentrations (EC50), pSer10 Histone H3.

On to `Nc1cc(C(F)(F)F)c(-c2cc(N3CCC3)nc(N3CCOCC3)n2)cn1` [Compound 1, 5-(6-(azetidin-1-yl)-2-morpholinopyrimidin-4-yl)-4-(trifluoromethyl)pyridin-2-amine], for which the EC50 was found to be 0.079 µM under setting [1] and 0.08 µM under setting [2].

For the compound `Nc1cc(C(F)(F)F)c(-c2cc(N3CC(F)C3)nc(N3CCOCC3)n2)cn1` [Compound 2, 5-(6-(3-fluoroazetidin-1-yl)-2-morpholinopyrimidin-4-yl)-4-(trifluoromethyl)pyridin-2-amine], the EC50 is 0.071 µM under setting [1] and 0.151 µM under setting [2].

Consider `CC1CN(c2cc(-c3cnc(N)cc3C(F)(F)F)nc(N3CCOCC3)n2)C1` [Compound 3, 5-(6-(3-methylazetidin-1-yl)-2-morpholinopyrimidin-4-yl)-4-(trifluoromethyl)pyridin-2-amine], for which, under setting [1], the EC50 was 0.092 µM.

For `Nc1cc(C(F)(F)F)c(-c2cc(N3CC(F)(F)C3)nc(N3CCOCC3)n2)cn1` [Compound 4, 5-(6-(3,3-difluoroazetidin-1-yl)-2-morpholinopyrimidin-4-yl)-4-(trifluoromethyl)pyridin-2-amine], the EC50 was 0.065 µM under setting [1] and 0.079 µM under setting [2].

As to `Nc1ncc(-c2cc(N3CC(F)(F)C3)nc(N3CCOCC3)n2)c(C(F)(F)F)n1` [Compound 8, 6-(3,3-difluoroazetidin-1-yl)-2-morpholino-4'-(trifluoromethyl)-[4,5'-bipyrimidin]-2'-amine], the EC50 was found to be 0.07 µM under setting [1] and 0.073 µM under setting [2].

Regarding `C[C@@H]1COCCN1c1nc(-c2cnc(N)cc2C(F)(F)F)cc(N2CC(F)(F)C2)n1` [Compound 16, (R)-5-(6-(3,3-difluoroazetidin-1-yl)-2-(3-methylmorpholino)pyrimidin-4-yl)-4-(trifluoromethyl)pyridin-2-amine], the EC50 is 0.111 µM under setting [1] and 0.115 µM under setting [2].

As to `Nc1cc(C(F)(F)F)c(-c2cc(N3CC(F)(F)C3)nc(N3CCC(O)CC3)n2)cn1` [Compound 40, 1-(4-(6-amino-4-(trifluoromethyl)pyridin-3-yl)-6-(3,3-difluoroazetidin-1-yl)pyrimidin-2-yl)piperidin-4-ol], the EC50 runs as follows: under setting [1], 0.128 µM; under setting [2], 0.135 µM.

Turning to `Nc1cc(C(F)(F)F)c(-c2cc(N3CC(F)(F)C3)nc(N3CCC(=O)CC3)n2)cn1` [Compound 76, 1-(4-(6-amino-4-(trifluoromethyl)pyridin-3-yl)-6-(3,3-difluoroazetidin-1-yl)pyrimidin-2-yl)piperidin-4-one], the EC50 reads like this: under setting [1], 0.129 µM; under setting [2], 0.127 µM.
